The target in the test is T1, human GPR119 (Homo sapiens, UniProt Q8TDV5).
T1 construct: expression vector for human GPR119 cDNA (Acc. No. NP_848566); expressed in transfected cells
T1 sequence (Q8TDV5 1-335): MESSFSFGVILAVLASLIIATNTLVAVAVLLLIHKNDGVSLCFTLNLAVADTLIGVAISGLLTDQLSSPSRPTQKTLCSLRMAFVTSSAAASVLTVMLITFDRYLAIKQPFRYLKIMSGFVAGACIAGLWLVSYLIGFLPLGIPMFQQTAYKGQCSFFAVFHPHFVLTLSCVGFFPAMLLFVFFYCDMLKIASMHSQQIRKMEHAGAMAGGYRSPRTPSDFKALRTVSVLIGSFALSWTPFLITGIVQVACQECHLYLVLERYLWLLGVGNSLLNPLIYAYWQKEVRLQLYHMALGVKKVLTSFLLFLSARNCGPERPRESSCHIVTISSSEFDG
The experiment in a line: AlphaScreen cAMP assay in MIN6 cells stably transfected with human GPR119. In kind it is cell-based. Conditions: Min-6/hGPR119 cells, AlphaScreen cAMP Assay Kit, 45 minutes incubation at room temperature. The method, then:
The compounds of formula I according to the invention modulate the activity of the G-protein-coupled receptor GPR119. The effect of the compounds on the activation of GPR119 and on the stimulation of intracellular cAMP concentration is determined using the AlphaScreen cAMP Assay Kit (Cat. No. #6760625R) made by PerkinElmer.
MIN6 cells [Miyazaki J et al. Endocrinology. 1990 July; 127(1):126-32] are stably transfected with an expression vector for human GPR119 cDNA (Acc. No. NP_848566). Min-6/hGPR119 cells are cultured in DMEM, 10% FBS, 50 μM β-mercaptoethanol, 0.3 mg/mL Geniticin, 2 mM GlutaMAX at 37° C. 5% CO2. For the assay, the cells are seeded in Optiplates (white, 384-well, 160 W-barcoded, TC, sterile with lid, Cat. No. #6007688 (Perkin Elmer); 10000 cells/well; 50 μl). The plates covered with lids are then incubated for 24 hours at 37° C./5% CO2. After the medium is aspirated from the wells completely, 10 μl of the test compound are added, the compounds are diluted using stimulating buffer (140 mM NaCl, 3.6 mM KCl, 0.5 mM NaH2PO4, 0.5 mM MgSO4, 1.5 mM CaCl2, 10 mM Hepes, 5 mM NaHCO3; pH 7.4. 0.5 mM IBMX and 0.1% BSA, the final DMSO concentration is 1%). After 45 minutes incubation at room temperature (approx. 20° C.), the cAMP concentrations are determined using the AlphaScreen cAMP Assay Kit (Cat. No. #6760625R from PerkinElmer).
(In general: Alpha assays give light when donor and acceptor beads are brought close together.)

The results in this text go back to US8822471B2, “Compounds, pharmaceutical compositions and uses thereof” (Boehringer Ingelheim International GmbH, priority 2011, dated 2014).

For orientation: EC50 means the concentration that produces a half-maximal response. Low readings indicate a more potent agent, high ones a less potent agent.

Take `COc1ccc(-c2cnc(N3CCC(N(C(=O)c4ccc(-c5cnco5)cc4)C4CC4)CC3)nc2)cc1` [Example 27, N-Cyclopropyl-N-{1-[5-(4-methoxy-phenyl)-pyrimidin-2-yl]-piperidin-4-yl}-4-oxazol-5-yl-benzamide]: the EC50 worked out at 71 nM.
`O=C(c1ccc(-c2cnco2)cc1)N(C1CC1)C1CCN(c2ccccn2)CC1` [Example 28, N-Cyclopropyl-4-oxazol-5-yl-N-(1-pyridin-2-yl-piperidin-4-yl)-benzamide] yielded an EC50 of 676 nM.
`O=C(c1ccc(-c2cnco2)cc1)N(C1CC1)C1CCN(c2ncc(F)cn2)CC1` [Example 29, N-Cyclopropyl-N-[1-(5-fluoro-pyrimidin-2-yl)-piperidin-4-yl]-4-oxazol-5-yl-benzamide] returned an EC50 of 78 nM.
Regarding `O=C(c1ccc(-c2cnco2)cc1)N(C1CC1)C1CCN(c2ncc(Cl)cn2)CC1` [Example 30, N-[1-(5-Chloro-pyrimidin-2-yl)-piperidin-4-yl]-N-cyclopropyl-4-oxazol-5-yl-benzamide], it took 19 nM to reach a half-maximal effect (EC50).
On to `O=C(c1ccc(-c2cnco2)cc1)N(C1CC1)C1CCN(c2ccc(C(F)(F)F)cn2)CC1` [Example 31, N-Cyclopropyl-4-oxazol-5-yl-N-[1-(5-trifluoromethyl-pyridin-2-yl)-piperidin-4-yl]-benzamide], for which the EC50 was 38 nM.
For `O=C(c1ccc(-c2cnco2)cc1)N(C1CC1)C1CCN(c2ccc(Br)cn2)CC1` [Example 32, N-[1-(5-Bromo-pyridin-2-yl)-piperidin-4-yl]-N-cyclopropyl-4-oxazol-5-yl-benzamide] the value was 38 nM; for `O=C(c1ccc(-c2cnco2)cc1)N(C1CC1)C1CCN(c2ccc(F)cn2)CC1` [Example 33, N-Cyclopropyl-N-[1-(5-fluoro-pyridin-2-yl)-piperidin-4-yl]-4-oxazol-5-yl-benzamide], 276 nM.
`Cc1ccc(N2CCC(N(C(=O)c3ccc(-c4cnco4)cc3)C3CC3)CC2)nc1` [Example 34, N-Cyclopropyl-N-[1-(5-methyl-pyridin-2-yl)-piperidin-4-yl]-4-oxazol-5-yl-benzamide] showed an EC50 of 85 nM.
`O=C(c1ccc(-c2cnco2)cc1)N(C1CC1)C1CCN(c2nc(Cl)ns2)CC1` [Example 35, N-[1-(3-Chloro-[1,2,4]thiadiazol-5-yl)-piperidin-4-yl]-N-cyclopropyl-4-oxazol-5-yl-benzamide] displayed an EC50 of 53 nM.
Take `CC(C)Nc1nsc(N2CCC(N(C(=O)c3ccc(-c4cnco4)cc3)C3CC3)CC2)n1` [Example 36, N-Cyclopropyl-N-[1-(3-isopropylamino-[1,2,4]thiadiazol-5-yl)-piperidin-4-yl]-4-oxazol-5-yl-benzamide]: a half-maximal response (EC50) required 83 nM.
As for `CC(C)Oc1nsc(N2CCC(N(C(=O)c3ccc(-c4cnco4)cc3)C3CC3)CC2)n1` [Example 37, N-Cyclopropyl-N-[1-(3-isopropoxy-[1,2,4]thiadiazol-5-yl)-piperidin-4-yl]-4-oxazol-5-yl-benzamide], the figure is 55 nM.
`CCc1noc(N2CCC(N(C(=O)c3ccc(-c4ccc(C(N)=O)cc4)cc3)C3CC3)CC2)n1` [Example 38, Biphenyl-4,4′-dicarboxylic acid 4-amide 4′-{cyclopropyl-[1-(3-ethyl-[1,2,4]oxadiazol-5-yl)-piperidin-4-yl]-amide}] registered an EC50 of 204 nM.
As for `NC(=O)c1ccc(-c2ccc(C(=O)N(C3CC3)C3CCN(c4nc(-c5ccccc5)no4)CC3)cc2)cc1` [Example 39, Biphenyl-4,4′-dicarboxylic acid 4′-amide 4-{cyclopropyl-[1-(3-phenyl-[1,2,4]oxadiazol-5-yl)-Piperidin-4-yl]-amide}], the figure is 87 nM; as for `O=C(c1ccc(-c2cnco2)cc1)N(C1CC1)C1CCN(c2nc(-c3ccc(Br)cc3)no2)CC1` [Example 40, N-{1-[3-(4-Bromo-phenyl)-[1,2,4]oxadiazol-5-yl]-piperidin-4-yl}-N-cyclopropyl-4-oxazol-5-yl-benzamide], 11 nM.
Compound `Cc1ncoc1-c1ccc(C(=O)N(C2CC2)C2CCN(c3nc(-c4ccccc4)no3)CC2)cc1` [Example 41, N-Cyclopropyl-4-(4-methyl-oxazol-5-yl)-N-[1-(3-phenyl-[1,2,4]oxadiazol-5-yl)-piperidin-4-yl]-benzamide] gave an EC50 of 38 nM.
As to `Cc1ncoc1-c1ccc(C(=O)N(C2CC2)C2CCN(c3nc(C(C)C)no3)CC2)cc1` [Example 42, N-Cyclopropyl-N-[1-(3-isopropyl-[1,2,4]oxadiazol-5-yl)-piperidin-4-yl]-4-(4-methyl-oxazol-5-yl)-benzamide], it took 17 nM to reach a half-maximal effect (EC50).
For `Cc1ncoc1-c1ccc(C(=O)N(C2CC2)C2CCN(c3ncc(Cl)cn3)CC2)cc1` [Example 43, N-[1-(5-Chloro-pyrimidin-2-yl)-piperidin-4-yl]-N-cyclopropyl-4-(4-methyl-oxazol-5-yl)-benzamide] the value was 46 nM; for `COc1ccc(-c2noc(N3CCC(N(C(=O)c4ccc(-c5cnco5)cc4)C4CC4)CC3)n2)cc1` [Example 44, N-Cyclopropyl-N-{1-[3-(4-methoxy-phenyl)-[1,2,4]oxadiazol-5-yl]-piperidin-4-yl}-4-oxazol-5-yl-benzamide], 31 nM.
Turning to `CCOC(=O)c1noc(N2CCC(N(C(=O)c3ccc(-c4cnco4)cc3)C3CC3)CC2)n1` [Example 45, 5-{4-[Cyclopropyl-(4-oxazol-5-yl-benzoyl)-amino]-piperidin-1-yl}-[1,2,4]oxadiazole-3-carboxylic acid ethyl ester], the EC50 worked out at 259 nM.
With `CC(C)(O)c1noc(N2CCC(N(C(=O)c3ccc(-c4cnco4)cc3)C3CC3)CC2)n1` [Example 46, N-Cyclopropyl-N-{1-[3-(1-hydroxy-1-methyl-ethyl)-[1,2,4]oxadiazol-5-yl]-piperidin-4-yl}-4-oxazol-5-yl-benzamide], the EC50 was 731 nM.
As to `O=C(c1ccc(-c2cnco2)cc1)N(C1CC1)C1CCN(c2noc(-c3ccccc3)n2)CC1` [Example 47, N-Cyclopropyl-4-oxazol-5-yl-N-[1-(5-phenyl-[1,2,4]oxadiazol-3-yl)-piperidin-4-yl]-benzamide], the midpoint of the response, the EC50, lay at 37 nM.
In the case of `CCc1nc(N2CCC(N(C(=O)c3ccc(-c4cnco4)cc3)C3CC3)CC2)no1` [Example 48, N-Cyclopropyl-N-[1-(5-ethyl-[1,2,4]oxadiazol-3-yl)-piperidin-4-yl]-4-oxazol-5-yl-benzamide], the concentration for a half-maximal effect (EC50) is 47 nM.
In turn, `CC(C)c1nc(N2CCC(N(C(=O)c3ccc(-c4cnco4)cc3)C3CC3)CC2)no1` [Example 49, N-Cyclopropyl-N-[1-(5-isopropyl-[1,2,4]oxadiazol-3-yl)-piperidin-4-yl]-4-oxazol-5-yl-benzamide] returned an EC50 of 14 nM.
For `O=C(c1ccc(-c2cnco2)cc1)N(C1CC1)C1CCN(c2noc(-c3cnccn3)n2)CC1` [Example 50, N-Cyclopropyl-4-oxazol-5-yl-N-[1-(5-pyrazin-2-yl-[1,2,4]oxadiazol-3-yl)-piperidin-4-yl]-benzamide], the response was half-maximal at 277 nM (EC50).
Turning to `O=C(c1ccc(-c2cnco2)cc1)N(C1CC1)C1CCN(c2noc(C3CC3)n2)CC1` [Example 51, N-Cyclopropyl-N-[1-(5-cyclopropyl-[1,2,4]oxadiazol-3-yl)-piperidin-4-yl]-4-oxazol-5-yl-benzamide], it took 56 nM to reach a half-maximal effect (EC50).
As for `O=C(c1ccc(-c2cnco2)cc1)N(C1CC1)C1CCN(c2noc(C3CCC3)n2)CC1` [Example 52, N-[1-(5-Cyclobutyl-[1,2,4]oxadiazol-3-yl)-piperidin-4-yl]-N-cyclopropyl-4-oxazol-5-yl-benzamide], the figure is 17 nM; as for `CCc1cnc(N2CCC(N(C(=O)c3ccc(-c4cnco4)cc3)C3CC3)C(C)C2)nc1` (centres unmarked) [Example 53, N-Cyclopropyl-N-[1-(5-ethyl-pyrimidin-2-yl)-3-methyl-piperidin-4-yl]-4-oxazol-5-yl-benzamide], 99 nM; as for `CC1CN(c2nc(-c3ccccc3)no2)CCC1N(C(=O)c1ccc(-c2cnco2)cc1)C1CC1` (centres unmarked) [Example 54, N-Cyclopropyl-N-[3-methyl-1-(3-phenyl-[1,2,4]oxadiazol-5-yl)-piperidin-4-yl]-4-oxazol-5-yl-benzamide], 43 nM.
Compound `O=C(c1ccc(-c2cnco2)cc1)N(C1CC1)C1CCN(c2nc(CC3CCOCC3)no2)CC1` [Example 55, N-Cyclopropyl-4-oxazol-5-yl-N-{1-[3-(tetrahydro-pyran-4-ylmethyl)-[1,2,4]oxadiazol-5-yl]-piperidin-4-yl}-benzamide] registered an EC50 of 1150 nM.
